# Where two headings read alike, the source gives them in different places. Marks after values point to notes of the source that are not given here.
# Columns and labels:
# [1] = Reducing ferric power test (FRAP); conditions: 700 nm
# Experimental: CEEO, carvacrol, menthol, and tricosane were mixed with phosphate buffer and potassium ferricyanide solution, incubated, and treated with trichloroacetic acid. After centrifugation, the upper layer was analyzed for absorbance (700 nm) with Trolox serving as a reference. The assay was done in triplicate, and the IC50 (μg/mL) was calculated (El Omari et al. [2023]).
# [2] = ABTS radical scavenging activity
# Experimental: The ABTS cation radical was generated from the reaction between ABTS solution and potassium persulfate with Trolox as a positive control. The assay was performed in triplicate and expressed in IC50 (μg/mL) (El Omari et al. [2023]).
# [3] = test system: Listeria monocytogenes (ATCC 13932); experiment: Microdilution method (MIC, MBC); type: cell-based; conditions: for MBC/MIC: 1 suggests bactericidal; for MBC / MIC: Listeria monocytogenes
# Experimental: (§1) The strains Escherichia coli (ATCC 25922), Pseudomonas aeruginosa NIH, Listeria monocytogenes (ATCC 13932), and Staphylococcus aureus (ATCC 29213) were used. After overnight incubation at 30 °C, the inhibition zone diameters (IZD) were measured in millimeters (mm). Next, the microdilution method served to assess the minimum inhibitory concentration (MIC) and minimum bactericidal concentration (MBC) (Bouyahya et al. [2020a], [b]).
# [4] = test system: Pseudomonas aeruginosa NIH; experiment: Microdilution method (MIC, MBC); type: cell-based; conditions: for MBC/MIC: 1 suggests bactericidal; for MBC / MIC: Pseudomonas aeruginosa; for MBC: read-out: MBC (minimum bactericidal concentration); for MIC: read-out: MIC (minimum inhibitory concentration)
# Experimental: as §1
# [5] = test system: Staphylococcus aureus (ATCC 29213); experiment: Microdilution method (MIC, MBC); type: cell-based
# Experimental: as §1
# [6] = test system: Escherichia coli (ATCC 25922); experiment: Microdilution method (MIC, MBC); type: cell-based
# Experimental: as §1
# α-amylase = target: T1, α-amylase (Bacillus licheniformis, UniProt P06278); experiment: α-Amylase inhibitory test; type: biochemical
# T1 construct: purchased
# T1 sequence (P06278 30-512): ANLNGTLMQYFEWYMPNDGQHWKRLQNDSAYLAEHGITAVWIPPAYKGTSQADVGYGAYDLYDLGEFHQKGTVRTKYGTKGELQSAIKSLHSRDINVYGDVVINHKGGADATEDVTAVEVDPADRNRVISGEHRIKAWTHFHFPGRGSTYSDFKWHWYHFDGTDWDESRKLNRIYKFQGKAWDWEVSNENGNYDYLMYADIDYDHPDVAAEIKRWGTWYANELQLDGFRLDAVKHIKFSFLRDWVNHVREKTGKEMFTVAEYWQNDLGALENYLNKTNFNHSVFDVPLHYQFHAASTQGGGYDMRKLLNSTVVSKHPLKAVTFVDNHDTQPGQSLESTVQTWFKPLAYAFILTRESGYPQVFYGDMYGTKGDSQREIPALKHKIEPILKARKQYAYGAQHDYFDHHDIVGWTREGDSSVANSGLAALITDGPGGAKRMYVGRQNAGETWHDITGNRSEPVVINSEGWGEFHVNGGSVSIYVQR
# Experimental: (§2) The α-glucosidase from Saccharomyces cerevisiae and the α-amylase from Bacillus licheniformis were also obtained from reliable commercial sources. Additional reagents were carefully selected from reputable suppliers. Mueller–Hinton agar was sourced from Biokar in Beauvais, France. All other chemicals used are of analytical grade.
# Initially, 250 μL of each sample was mixed with 250 μL of sodium phosphate buffer (SPB) (0.02 M & pH = 6.9) and α-amylase enzyme (240 U/mL). The blend was then incubated at 37 °C/20 min. Then, a 1% starch solution (250 μL) in SPB was added, followed by incubation at 37 °C/15 min. Thereafter, 1 mL of dinitrosalicylic acid (DNS) was also added, and the mix was heated for 10 min (Bouyahya et al. [2019a], [b]; Omari et al. [2023]). The solution was then diluted with 2 mL of sterile water, and the OD (540 nm) was measured. […] The % of inhibition was calculated using the formula: [drawing 1]
# DPPH test = conditions: radical scavenging, 30 min, 517 nm
# Experimental: This assay used DPPH radical to assess the free radical-scavenging ability. Samples dissolved in methanol were mixed with a methanolic solution of DPPH and incubated, in triplicate, at ambient temperature for 30 min (El Omari et al. [2023]). Absorbance was read at 517 nm, and the percentage of DPPH radical scavenging and the inhibition in IC50 (μg/mL) were calculated. Trolox served as a positive control.
# α-glucosidase = target: T2, α-glucosidase (Saccharomyces cerevisiae, UniProt P53341); experiment: α-Glucosidase inhibitory test; type: biochemical
# T2 construct: purchased
# T2 sequence (P53341 whole entry): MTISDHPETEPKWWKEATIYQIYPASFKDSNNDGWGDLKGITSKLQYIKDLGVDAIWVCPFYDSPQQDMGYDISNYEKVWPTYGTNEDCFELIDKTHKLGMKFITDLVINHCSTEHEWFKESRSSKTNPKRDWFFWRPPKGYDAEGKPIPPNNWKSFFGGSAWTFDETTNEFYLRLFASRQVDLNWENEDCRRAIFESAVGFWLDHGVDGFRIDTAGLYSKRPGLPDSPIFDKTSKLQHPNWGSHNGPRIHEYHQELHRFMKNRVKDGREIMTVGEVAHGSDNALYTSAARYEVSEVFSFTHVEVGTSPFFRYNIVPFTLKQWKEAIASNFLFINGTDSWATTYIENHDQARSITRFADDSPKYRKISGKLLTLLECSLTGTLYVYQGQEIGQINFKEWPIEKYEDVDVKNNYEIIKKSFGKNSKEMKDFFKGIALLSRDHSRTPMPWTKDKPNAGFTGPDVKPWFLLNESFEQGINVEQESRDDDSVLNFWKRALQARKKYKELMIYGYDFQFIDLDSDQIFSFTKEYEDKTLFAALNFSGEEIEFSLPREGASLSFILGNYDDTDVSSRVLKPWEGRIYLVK
# Experimental: as §2
# The inhibition of α-glucosidase action was assessed using the pNPG substrate as previously detailed (Bouyahya et al. [2021]). A mixture of 200 μL of the samples and 100 μL SPB (0.1 M & pH = 6.7), mixed with α-glucosidase (0.1 U/mL), underwent incubation at 37 °C/10 min. Next, 200 μL of pNPG (1 mM) solution in SPB (0.1 M & pH = 6.7) was added, then incubated at 37 °C/30 min. The measurement of α-glucosidase inhibition was done by measuring the OD (405 nm) after adding 1 mL of Na2CO3 (0.1 M).
# elastase = elastase (Sus scrofa, UniProt P00772); experiment: Elastase inhibitory assay; type: biochemical; conditions: 410 nm
# elastase, sequence (P00772 27-266): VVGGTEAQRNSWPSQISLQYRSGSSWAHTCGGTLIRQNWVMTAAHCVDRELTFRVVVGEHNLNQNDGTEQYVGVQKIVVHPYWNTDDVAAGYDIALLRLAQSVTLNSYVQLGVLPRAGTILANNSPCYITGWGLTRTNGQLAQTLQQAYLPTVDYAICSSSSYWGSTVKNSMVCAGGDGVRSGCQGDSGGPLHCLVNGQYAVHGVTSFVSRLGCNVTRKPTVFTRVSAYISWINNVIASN
# Experimental: Then, 200 µL of an elastase solution prepared in Tris–HCl buffer (0.2 M, pH 8.0) was mixed with 50 µL of each sample. Following a 15-min incubation at 25 °C, 200 µL of N-succinyl-Ala-Ala-p-nitroanilide solution was added, and the reaction mixtures were homogenized. Absorbances were recorded at 410 nm after an additional 20-min incubation at 25 °C. The data obtained were used to determine the IC50 and to calculate the percent inhibition of elastase.
# tyrosinase = tyrosinase (Agaricus bisporus, UniProt C7FF04); set-up: method as in El Khoury et al. [2019]; conditions: carvacrol from Origanum EOs; ref El Khoury et al. [2019]; cited from earlier work
# tyrosinase, sequence (C7FF04 1-392): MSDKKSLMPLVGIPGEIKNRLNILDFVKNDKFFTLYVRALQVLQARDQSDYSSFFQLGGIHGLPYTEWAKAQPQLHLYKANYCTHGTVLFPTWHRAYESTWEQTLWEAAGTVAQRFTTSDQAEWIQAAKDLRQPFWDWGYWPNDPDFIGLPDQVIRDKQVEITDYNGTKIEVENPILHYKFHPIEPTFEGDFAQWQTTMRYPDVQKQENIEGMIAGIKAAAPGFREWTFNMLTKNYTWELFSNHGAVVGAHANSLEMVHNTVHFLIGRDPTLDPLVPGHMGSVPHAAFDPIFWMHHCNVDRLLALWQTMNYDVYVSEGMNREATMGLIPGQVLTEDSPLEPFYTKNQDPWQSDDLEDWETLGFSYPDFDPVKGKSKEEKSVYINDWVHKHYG
# [7] = test system: Listeria monocytogenes (ATCC 13932); experiment: Disk diffusion method (inhibition zone diameter); type: cell-based; conditions: L. monocytogenes, Gram-positive
# Experimental: as §1
# [8] = test system: Pseudomonas aeruginosa NIH; experiment: Disk diffusion method (inhibition zone diameter); type: cell-based; conditions: P. aeruginosa, Gram-negative
# Experimental: as §1
# [9] = test system: Staphylococcus aureus (ATCC 29213); experiment: Disk diffusion method (inhibition zone diameter); type: cell-based; conditions: S. aureus, Gram-positive
# Experimental: as §1
# [10] = test system: Escherichia coli (ATCC 25922); experiment: Disk diffusion method (inhibition zone diameter); type: cell-based; conditions: E. coli, Gram-negative
# Experimental: as §1
# [11] = Elastase IC50, N-succinyl-Ala-Ala-p-nitroanilide
# [12] = ATCC13932, L. monocytogenes, read-out: MBC (minimum bactericidal concentration)
# [13] = ATCC13932, L. monocytogenes, read-out: MIC (minimum inhibitory concentration)
# [14] = ATCC29213, S. aureus, read-out: MBC (minimum bactericidal concentration)
# [15] = ATCC29213, S. aureus, read-out: MIC (minimum inhibitory concentration)
# [16] = ATCC25922, E. coli, read-out: MBC (minimum bactericidal concentration)
# [17] = ATCC25922, E. coli, read-out: MIC (minimum inhibitory concentration)
SMILES,FRAP IC50 [1],ABTS IC50 [2],MBC/MIC ([3]; L. monocytogenes),MBC/MIC ([4]; P. aeruginosa),IC50 (α-amylase),DPPH IC50 (DPPH test),IC50 (α-glucosidase),IC50 (elastase; [11]),IZD (inhibition zone diameter) [7],IZD (inhibition zone diameter) [8],IZD (inhibition zone diameter) [9],IZD (inhibition zone diameter) [10],"MBC [3, 12]","MIC [3, 13]",MBC ([4]; P. aeruginosa),MIC ([4]; P. aeruginosa),"MBC [5, 14]","MIC [5, 15]","MBC [6, 16]","MIC [6, 17]",other results
"Cc1ccc(C(C)C)cc1O [Carvacrol, carvacrol]",59.96 ± 2.60^f µg/mL,81.41 ± 4.31^b µg/mL,1,1,3770 µM,48.06 ± 4.31^h µg/mL,1340 µM,830 µM,33 ± 2.64^a mm,29 ± 2.64^c mm,35.33 ± 1.52^a mm,31.33 ± 2.51^b mm,,,,,,,,,"MBC ([3]; ATCC13932, read-out: MBC (minimum bactericidal concentration)): 0.125 µg/mL; MIC ([3]; ATCC13932, read-out: MIC (minimum inhibitory concentration)): 0.125 µg/mL; MBC [4]: 0.5 µg/mL; MIC [4]: 0.5 µg/mL; MBC ([5]; ATCC29213, read-out: MBC (minimum bactericidal concentration)): 0.025 µg/mL; MIC ([5]; ATCC29213, read-out: MIC (minimum inhibitory concentration)): 0.0125 µg/mL; MBC ([6]; ATCC25922, read-out: MBC (minimum bactericidal concentration)): 0.25 µg/mL; MIC ([6]; ATCC25922, read-out: MIC (minimum inhibitory concentration)): 0.125 µg/mL; tyrosinase inhibition (tyrosinase): 56.55%"
"O=C(N[C@H](CO)[C@H](O)c1ccc([N+](=O)[O-])cc1)C(Cl)Cl [Chloramphenicol, reference compound]",,,,,,,,,,,,,32 µg/mL,16 µg/mL,64 µg/mL,64 µg/mL,32 µg/mL,8 µg/mL,32 µg/mL,8 µg/mL,
"CC1CCC(C(C)C)C(O)C1 (stereo not shown) [Menthol, menthol]",57.93 ± 15.63^f µg/mL,71.76 ± 3.16^a µg/mL,,,3020 µM,58.89 ± 4.03^a µg/mL,1170 µM,717 µM,26.33 ± 1.52^b mm,18 ± 4.5^b mm,32 ± 2.64^a mm,14 ± 2^a mm,0.5 µg/mL,0.25 µg/mL,1 µg/mL,0.25 µg/mL,1 µg/mL,0.5 µg/mL,2 µg/mL,0.5 µg/mL,
"CCCCCCCCCCCCCCCCCCCCCCC [Tricosane, tricosane]",103.9 ± 2.48 µg/mL,120.34 ± 2.97 µg/mL,1,1,1190 µM,91.03 ± 0.3^b µg/mL,592 µM,,31.67 ± 4.04^b mm,17 ± 2.51^b mm,29 ± 4.58^a mm,20.67 ± 2.08^C mm,0.25 µg/mL,0.25 µg/mL,0.5 µg/mL,0.5 µg/mL,0.5 µg/mL,0.125 µg/mL,1 µg/mL,0.25 µg/mL,"IC50 (elastase; N-succinyl-Ala-Ala-p-nitroanilide, read-out: Elastase IC50 (converted)): 384 µM"
"Cc1c(C)c2c(c(C)c1O)CCC(C)(C(=O)O)O2 (stereo not shown) [Trolox, reference compound]",54.74 ± 3.85^f µg/mL,55.25 ± 4.19^b µg/mL,,,,34.12 ± 2.13^h µg/mL,,,,,,,,,,,,,,,

# — paper PMC12540964 (AMB Express, 2025)
